# Measured values reported in ChEMBL document CHEMBL5728173, “N4-hydroxycytidine and derivatives and anti-viral uses related thereto” (2020).
# What was measured:
# [1] = antiviral activity: Several derivatives of EIDD-01931 have shown antiviral activity in screening against various viruses. Activity data is shown in the tables below. Norovirus SARS Coronavirus GT1 Orbani HG23 Vero 76.
# [2] = CPE Assay: Primary cytopathic effect (CPE) reduction assay. Four-concentration CPE inhibition assays are performed. Confluent or near-confluent cell culture monolayers in 96-well disposable microplates are prepared.
structure (smiles),measurement,setting,value
CC1(O)[C@@H](O)[C@@H](CO)O[C@H]1n1ccc(NO)nc1=O (stereo partly drawn),EC50,[1],> 366 µM
same,EC50,[2],72 µM
CCCCCCCNC(=O)OC[C@H]1O[C@@H](n2ccc(NO)nc2=O)C(O)[C@H]1O (stereo partly drawn),EC50,[2],> 78 µM
O=c1ccn([C@@H]2O[C@H](CO)[C@H](O)C23CC3(F)F)c(=O)[nH]1 (stereo partly drawn),EC50,[2],> 78 µM
CN(C)C(=O)ONc1ccn([C@@H]2O[C@H](CO)[C@H](O)C2O)c(=O)n1 (stereo partly drawn),EC50,[2],25 µM
CONc1ccn([C@@H]2O[C@H](CO)[C@H](O)C2(C)O)c(=O)n1 (stereo partly drawn),EC50,[2],> 75 µM
CCCCCCCNC(=O)ONc1ccn([C@@H]2O[C@H](CO)[C@H](O)C2O)c(=O)n1 (stereo partly drawn),EC50,[2],29 µM
CCOP(=O)(OCC)OC[C@H]1O[C@@H](n2ccc(NO)nc2=O)C(O)[C@H]1O (stereo partly drawn),EC50,[2],> 78 µM
O=c1nc(NO)ccn1[C@@H]1O[C@H](CO)[C@H](O)C1F (stereo partly drawn),EC50,[2],> 75 µM
C#CC1(O)[C@@H](O)[C@@H](COP(=O)(OCOC(=O)C(C)(C)C)OCOC(=O)C(C)(C)C)O[C@H]1n1ccc(=O)[nH]c1=O (stereo partly drawn),EC50,[2],64.4 µM
CCCCCCCCCCCCCCCCOCCCOP(=O)(O)OC[C@H]1O[C@@H](n2ccc(NO)nc2=O)C(O)[C@H]1O (stereo partly drawn),EC50,[2],34.5 µM
CC1(O)[C@H]2OP(=O)(Oc3ccccc3)OC[C@H]2O[C@H]1n1ccc(=O)[nH]c1=O (stereo partly drawn),EC50,[2],> 78 µM
CCCCCCCCC(=O)OC[C@H]1O[C@@H](n2ccc(NO)nc2=O)C(O)[C@H]1O (stereo partly drawn),EC50,[2],0.3 µM
CC(C)(C)C(=O)OCOP(=O)(OCOC(=O)C(C)(C)C)OC[C@@]1(N=[N+]=[N-])O[C@@H](n2ccc(=O)[nH]c2=O)C(O)[C@H]1O (stereo partly drawn),EC50,[2],56 µM
CCCCCCCNC(=O)ONc1ccn([C@H]2O[C@H](CO)[C@H](O)C2O)c(=O)n1 (stereo partly drawn),EC50,[2],38 µM
O=c1nc(NO)ccn1[C@@H]1O[C@H](COP2(=O)OCc3ccccc3O2)[C@H](O)C1O (stereo partly drawn),EC50,[2],10.8 µM
O=c1nc(NO)cc[nH]1 [N4-hydroxycytosine],EC50,[2],> 78 µM
CNC(=O)ONc1ccn([C@@H]2O[C@H](CO)[C@H](O)C2O)c(=O)n1 (stereo partly drawn),EC50,[2],32 µM
O=c1nc(NO)ccn1[C@@H]1O[C@H](CO)[C@H](O)C1O (stereo partly drawn),EC50,[1],> 3860 µM
NNc1ccn([C@@H]2O[C@H](CO)[C@H](O)C2O)c(=O)n1 (stereo partly drawn),EC50,[2],> 78 µM
CCCCCCCCCCCCCCCCNC(=O)ONc1ccn([C@@H]2O[C@H](CO)[C@H](O)C2O)c(=O)n1 (stereo partly drawn),EC50,[2],> 78 µM
CC1(F)[C@@H](O)[C@@H](CO)O[C@H]1n1ccc(NO)nc1=O (stereo partly drawn),EC50,[2],> 75 µM
CC(C)(C)C(=O)OCOP(=O)(OCOC(=O)C(C)(C)C)OC[C@H]1O[C@@H](n2ccc(=O)[nH]c2=O)C(C)(F)[C@H]1O (stereo partly drawn),EC50,[2],58 µM
